EC50 data for 17 compounds are collected here from patent US9290487B2, “Pharmaceutical composition for treating diabetes” (Ajinomoto Co., Inc., priority 2011, dated 2016).

For orientation: EC50 means the concentration giving half of the maximal effect.

Structures are written as SMILES.

This assay has as its target human GYS1 (glycogen synthase) (Homo sapiens (Human), UniProt P13807). Kind of assay: Measurement of glycogen synthase activity (coupled pyruvate kinase/lactate dehydrogenase assay, absorbance at 340 nm). Format: biochemical. The settings on record: concentration inducing relative activity of 50% (100% = Ex. 1 of WO/2011/058154 at 10 μM); incubation at 37° C. for 20 minutes (Examples 11 to 75). Here is the method: A human GYS1 expression plasmid (pCDNA3.1(+)-hGYS1) was constructed by the following method. Using a human skeletal muscle cDNA of Human MTC Panel I (Takara Bio Inc., 636742) as a template, a human GYS1 gene was amplified by a PCR method using cloning primers (Forward Primer: ATGCCTTTAAACCGCAC (SEQ ID NO: 1), Reverse Primer: TTAGTTACGCTCCTCGC (SEQ ID NO: 2)). Using the amplified human GYS1 sequence as a template, a restriction enzyme sequence was added by a PCR method using sub-cloning primers (Forward Primer: […] (SEQ ID NO: 3), Reverse Primer: […] (SEQ ID NO: 4)). Then, the human GYS1 gene was introduced between a Xho I site and a Xba I site of pCDNA3.1(+) (Invitrogen Corporation, V790-20).
Glycogen synthase was prepared by the following method according to the published article (THE JOURNAL OF BIOLOGICAL CHEMISTRY Vol. 269, No. 41, 25534-25542, 1994). Human kidney-derived HEK293T cells were seeded in a dish (Thermo Fisher Scientific Inc., 168381) using a 10% FBS-containing DMEM (Nacalai Tesque, Inc., 0845874) medium, and cultured overnight. Then, using Lipofectamine LTX (Invitrogen Corporation, 15338-100), the human GYS1 expression vector was transfected according to the attached manual. After culturing under conditions of 37° C. and 5% CO2 for 2 days, the resultant was dissolved in a lysis buffer (50 mM Tris-HCl (pH 8.0), 10 mM EDTA, 2 mM EGTA, 100 mM NaF, 1 mM PMSF, 1 mM DTT, 1× Complete (Roche Diagnostics K. K., 1873580)), homogenized, and then centrifuged at 16000×g at 4° C. for 15 minutes. To the precipitated fraction, a lysis buffer was added. Re-dissolved fractions were used as glycogen synthase for evaluation.
The glycogen synthase activity was measured by the following method. To a polystyrene 96-well plate, a solution containing 30 mM glycylglycine (pH 7.3), 40 mM KCl, 20 mM MgCl2, 9.2% DMSO containing one of the test compounds at various concentrations, and 10 mM glucose-6-phosphate (Sigma-Aldrich Corporation, G7879) was added by 12 μL/well.
Next, a substrate solution containing 30 mM glycylglycine (pH 7.3), 4.3 mg/mL of glycogen (Sigma-Aldrich Corporation, G8876), 21.6 mM UDP-glucose (Sigma-Aldrich Corporation, U4625), 21.6 mM phosphoenolpyruvic acid (Sigma-Aldrich Corporation, P0564), and 4.05 mM NADH (Sigma-Aldrich Corporation, N8129) was added by 18 μL/well.
Further, an enzyme solution containing 50 mM Tris-HCl (pH 8.0), 27 mM DTT (Nacalai Tesque, Inc., 14128-04), 0.2 mg/mL of bovine serum albumin, 0.17 mg/mL of the glycogen synthase, 1.5 μL of a pyruvate kinase/lactate dehydrogenase solution (Sigma-Aldrich Corporation, P0294) was added by 18 μL/well to prepare a reaction solution. After the reaction solution was incubated (at 30° C. for 25 minutes for Examples 1 to 10, at 37° C. for 20 minutes for Examples 11 to 75), the absorbance at 340 nm was measured using Benchmark Plus (Bio-Rad Laboratories, Inc.).
The activities of the test compounds were calculated by the following method. The change in the absorbance (ΔA340) was calculated by subtracting the absorbance at 340 nm of the reaction solution containing the compound and DMSO from the absorbance at 340 nm of a reaction solution not containing the compound but containing only DMSO. The ΔA340 of the reaction solution containing the compound of Example 1 in WO/2011/058154 at the final concentration of 10 μM was taken as 100% to calculate the relative activity (%) of the test compounds at various concentrations. EC50 representing the concentration of the compound which induces an increase in the relative activity to 50% was calculated using XLfit (idbs).

human GYS1 (glycogen synthase), sequence (P13807 whole entry): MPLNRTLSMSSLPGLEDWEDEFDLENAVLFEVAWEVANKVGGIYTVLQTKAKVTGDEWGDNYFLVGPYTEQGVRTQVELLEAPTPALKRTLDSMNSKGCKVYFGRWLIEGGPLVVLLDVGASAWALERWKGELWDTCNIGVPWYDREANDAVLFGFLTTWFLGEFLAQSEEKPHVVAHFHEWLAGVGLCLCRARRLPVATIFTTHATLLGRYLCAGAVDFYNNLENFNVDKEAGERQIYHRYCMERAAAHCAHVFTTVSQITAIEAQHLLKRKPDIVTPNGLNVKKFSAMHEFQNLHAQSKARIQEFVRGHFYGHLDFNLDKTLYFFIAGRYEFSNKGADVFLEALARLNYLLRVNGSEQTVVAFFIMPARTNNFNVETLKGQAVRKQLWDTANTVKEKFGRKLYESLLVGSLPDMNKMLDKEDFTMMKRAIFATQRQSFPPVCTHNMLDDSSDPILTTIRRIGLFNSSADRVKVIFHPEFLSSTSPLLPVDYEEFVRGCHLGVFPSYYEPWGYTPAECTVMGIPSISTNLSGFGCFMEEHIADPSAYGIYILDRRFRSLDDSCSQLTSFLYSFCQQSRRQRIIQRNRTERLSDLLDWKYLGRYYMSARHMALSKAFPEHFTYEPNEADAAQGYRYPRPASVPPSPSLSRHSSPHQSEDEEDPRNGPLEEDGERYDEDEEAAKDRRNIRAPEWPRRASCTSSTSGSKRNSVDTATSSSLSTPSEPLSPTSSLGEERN

On to `Cc1cc2c(-c3ccc(OCc4cccc(C(=O)N5CCC[C@H]5C(=O)O)c4)cc3)cc(F)c(F)c2[nH]1` [compound of Ex. 41, 1-(3-{[4-(6,7-difluoro-2-methyl-1H-indol-4-yl)phenoxy]methyl}benzoyl)-L-proline], for which the midpoint of the response, the EC50, lay at 0.1 µM.

As to `COCc1coc2c(-c3ccc(OCc4cccc(C(=O)N5CCC[C@H]5C(=O)O)c4)cc3)cc(F)c(F)c12` [compound of Ex. 45, 1-[3-({4-[4,5-difluoro-3-(methoxymethyl)-1-benzofuran-7-yl]phenoxy}methyl)benzoyl]-L-proline], the EC50 was 0.8 µM.

On to `N#CCc1coc2c(-c3ccc(OCc4cccc(C(=O)N5CCC[C@H]5C(=O)O)c4)cc3)cc(F)c(F)c12` [compound of Ex. 46, 1-[3-({4-[3-(cyanomethyl)-4,5-difluoro-1-benzofuran-7-yl]phenoxy}methyl)benzoyl]-L-proline], for which the EC50 worked out at 0.15 µM. This EC50 is about 5.3-fold lower than that of the compound before.

Take `C#CCOc1cc(-c2ccc(OCc3cccc(C(=O)N4CCC[C@H]4C(=O)O)c3)cc2)cc(F)c1F` [compound of Ex. 47, 1-[3-({[3′,4′-difluoro-5′-(prop-2-yn-1-yloxy)biphenyl-4-yl]oxy}methyl)benzoyl]-L-proline]: the EC50 turned out to be 0.15 µM.

In turn, `N#CCOc1cc(-c2ccc(OCc3cccc(C(=O)N4CCC[C@H]4C(=O)O)c3)cc2)cc(F)c1F` [compound of Ex. 48, 1-[3-({[3′-(cyanomethoxy)-4′,5′-difluorobiphenyl-4-yl]oxy}methyl)benzoyl]-L-proline] gave an EC50 of 0.12 µM.

`N#Cc1cc2c(F)c(F)cc(-c3ccc(OCc4cccc(C(=O)N5CCC[C@H]5C(=O)O)c4)cc3)c2o1` [compound of Ex. 54]: the midpoint of the response, the EC50, lay at 0.26 µM.

As to `Cc1csc2c(-c3ccc(OCc4cccc(C(=O)N5CCC[C@H]5C(=O)O)c4)cc3)cc(F)c(F)c12` [compound of Ex. 55, 1-(3-{[4-(4,5-difluoro-3-methyl-1-benzothien-7-yl)phenoxy]methyl}benzoyl)-L-proline], the EC50 worked out at 0.085 µM.

As to `NC(=NO)c1cc2c(F)c(F)cc(-c3ccc(OCc4cccc(C(=O)N5CCC[C@H]5C(=O)O)c4)cc3)c2o1` [compound of Ex. 57, 1-{3-[(4-{2-[amino(hydroxyimino)methyl]4,5-difluoro-1-benzofuran-7-yl}phenoxy)methyl]benzoyl}-L-proline], the concentration for a half-maximal effect (EC50) is 0.14 µM.

For `O=C(O)[C@@H]1CCN1C(=O)c1cccc(COc2ccc(-c3cc(F)c(F)c4ccoc34)cc2)c1` [compound of Ex. 59, (2S)-1-(3-{[4-(4,5-difluoro-1-benzofuran-7-yl)phenoxy]methyl}benzoyl)azetidine-2-carboxylic acid], the 50% effective concentration (EC50) was 0.15 µM.

Compound `O=C(O)[C@@H]1CCCN1C(=O)c1cccc(COc2ccc(-c3cc(F)c(F)c4ccoc34)cc2F)c1` [compound of Ex. 60, 1-(3-{[4-(4,5-difluoro-1-benzofuran-7-yl)-2-fluorophenoxy]methyl}benzoyl)-L-proline] yielded a half-maximal effective concentration (EC50) of 0.16 µM.

Turning to `Cc1cc2c(F)c(F)cc(-c3ccc(OCc4cccc(C(=O)N5CCC[C@H]5C(=O)O)c4)cc3)c2s1` [compound of Ex. 62, 1-(3-{[4-(4,5-difluoro-2-methyl-1-benzothien-7-yl)phenoxy]methyl}benzoyl)-L-proline], the EC50 turned out to be 0.27 µM.

For the compound `C[C@@H](C(=O)O)N(C)C(=O)c1cccc(COc2ccc(-c3cc(F)c(F)c4ccoc34)cc2)c1` [compound of Ex. 63, N-(3-{[4-(4,5-difluoro-1-benzofuran-7-yl)phenoxy]methyl}benzoyl)-N-methyl-L-alanine], a half-maximal effect (EC50) was put at 0.22 µM.

The compound `O=C(O)[C@@H]1C=CCN1C(=O)c1cccc(COc2ccc(-c3cc(F)c(F)c4ccoc34)cc2)c1` [compound of Ex. 64, (2S)-1-(3-{[4-(4,5-difluoro-1-benzofuran-7-yl)phenoxy]methyl}benzoyl)-2,5-dihydro-1H-pyrrole-2-carboxylic acid] came in with a half-maximal effective concentration (EC50) of 0.14 µM.

`N#Cc1cc2c(F)c(F)cc(-c3ccc(OCc4cccc(C(=O)N5CCC[C@H]5C(=O)O)c4)cc3)c2s1` [compound of Ex. 67, 1-(3-{[4-(2-cyano-4,5-difluoro-1-benzothien-7-yl)phenoxy]methyl}benzoyl)-L-proline] showed an EC50 of 0.59 µM.

In the case of `O=C(O)[C@@H]1CSCN1C(=O)c1cccc(COc2ccc(-c3cc(F)c(F)c4ccoc34)cc2)c1` [compound of Ex. 68, (4R)-3-(3-{[4-(4,5-difluoro-1-benzofuran-7-yl)phenoxy]methyl}benzoyl)-1,3-thiazolidine-4-carboxylic acid], the EC50 is 0.34 µM. Compared with the last compound, the EC50 is about 1.7-fold lower.

As to `COCc1cc2c(F)c(F)cc(-c3ccc(OCc4cccc(C(=O)N5CCC[C@H]5C(=O)O)c4)cc3)c2o1` [compound of Ex. 73, 1-[3-({4-[4,5-difluoro-2-(methoxymethyl)-1-benzofuran-7-yl]phenoxy}methyl)benzoyl]-L-proline], the concentration giving a half-maximal response (EC50) is 0.065 µM.

For the compound `COCc1cc2c(F)c(F)cc(-c3ccc(OCc4cccc(C(=O)N5CCC[C@H]5C(=O)O)c4)cc3)c2s1` [compound of Ex. 74, 1-[3-({4-[4,5-difluoro-2-(methoxymethyl)-1-benzothien-7-yl]phenoxy}methyl)benzoyl]-L-proline], the EC50 stood at 0.2 µM. Compared with the last compound, the EC50 is about 3.1-fold higher.
